Patent US6291247A, “Methods of screening for factors that disrupt neurotrophin conformation and reduce neurotrophin biological activity” (priority 1996, dated 2001)
Entries after “also recorded” stand apart in the source; their conditions may differ. Bridges are numbered along the chain shown (N, C = ends).

How the values were obtained:
TrkA = system: T1, TrkA; assay: Binding of 125I-NGF to TrkA on PC12 cells (p75NTR blocked with BDNF); parameters: species or system rat; details: 100 μM; in presence of 40 nM BDNF; ± SEM; 120 min
T1 construct: Receptor cross-linking studies were performed on PC12 rat pheochromocytoma cells; endogenous in cells; host or cells: PC12 rat pheochromocytoma cells (ATCC CRL 1721)
T1 sequence (P01139 122-239): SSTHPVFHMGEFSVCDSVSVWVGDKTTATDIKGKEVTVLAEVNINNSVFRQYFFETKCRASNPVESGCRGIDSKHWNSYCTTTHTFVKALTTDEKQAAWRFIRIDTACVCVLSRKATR
Procedure: PC12 cells were grown in RPMI with 10% heat inactivated donor horse serum and 5% fetal calf serum. […] The tubes were incubated for 2 hr at 4° C. and 100 μl aliquots (providing triplicate data points for each sample) were transferred to 400 μl microcentrifuges containing 200 μl of 10% glycerol in HKR. Tubes were centrifuged for 2 minutes at 5,000 rpm, the tip containing the cell pellet cut off and radioactivity bound to the cells was determined.

NGF = biological target: T2, NGF (Mus musculus, UniProt P01139); assay: NGF protomer crosslinking with BS3 (NGF conformation), metal ions; assay type: biochemical
T2 construct: homodimer
T2 sequence (P01139 122-239): as above
Procedure: For crosslinking NGF […], 0.4 mM BS^3 was added to the mixture and incubated for 30 minutes at 25° C. […] For CD studies, NGF (50 μg/ml) was dissolved in 50 mM Tris-HCl buffer and spectra recorded using a computer controlled Jasco J-600 spectropolarimeter. Samples were acquired in the absence or presence of Zn^2+ (100 μM) at 22° C. in a 2 mm quartz cell averaged over eight scans. Modification of His residues by DEPC was carried out as previously described, where the molar excess of DEPC added and the extent of reaction was determined by evaluating the loss of binding activity of the modified product.

PC12 cells = assay: NGF-dependent survival of PC12 cells; assay type: cell-based, rat
Procedure: Effects of divalent ions on NGF mediated survival and toxicity was evaluated using a colorimetric assay for the lysosomal enzyme acid phosphatase to determine cell number (Connolly, D. T., Knight, M. B., Harakas, N. K, Wittwer, A. J. & Feder, J. Determination of the number of endothelial cells in culture using an acid phosphatase assay. Anal. Biochem. 152, 136-140 (1986); Ueda, Y., Walsh, E., Nakanishi H. & Yoshida, K. A. colorometric assay method for the evaluation of neurotrophic activity in vitro. Neurosci. Lett. 165, 203-207 (1994)). […] To evaluate toxicity, the cells were seeded and maintained without NGF in RPMI with 10% heat inactivated donor horse serum and 5% fetal calf serum in the presence of additives. Loss in viable cell number was determined and expressed as a percent of control. NGF rescues PC12 cells from cell death in serum-free medium(Greene, L. A. Nerve growth factor prevents the death and stimulates neuronal differentiation of clonal PC12 pheochromocytoma cells in serum-free medium. J. Cell Biol. 78, 747-755 (1978)). NGF-dependent survival was assessed by harvesting PC12 cells in balanced salt solution followed with washing by 4 cycles of suspension and centrifugation in serum-free RPMI prior to seeding in 96 well plates. After incubation with additives, medium was removed from the wells and cells washed once with 200 μl PBS. Buffer containing 0.1M sodium acetate pH 5.5, 0.1% Triton X-100 and 10 mM p-nitrophenyl phosphate (Sigma 104 phosphatase substrate) was added to each well (100 μl). Plates were incubated at 37° C. for 3 hours. The reaction was stopped by the addition of 10 μl/well of 1N sodium hydroxide and the color development measured at 405 nm using a microplate reader. The relationship between cell number and enzyme activity was linear over the range 1000 to 15,000 cells.
(§1) To explore the ability of other transition metals to influence the biological activities of NGF, a series of cations known to mimic in certain respects the binding of zinc to proteins were tested. […] For this reason these ions were not tested in NGF- dependant growth phenomena. […] As these studies appeared to indicate potentially complex results upon metal ions binding to NGF, a receptor crosslinking system where specific receptor types could be identified was utilized.

TrkA receptor = assay: NGF-dependent TrkA phosphorylation in PC12 cells, metal ions; assay type: cell-based, rat
Procedure: Zn^2+ and/or other additives were allowed to equilibrate with NGF for 2 hours at 4° C. prior to addition of cells. PC12 cells were used at 10^6 cells/ml and incubated with 40 pM NGF for 15 minutes at 37° C. At the conclusion of the reaction, cells were washed, lysed in TBS containing 10% glycerol, 1% Triton X-100, 1 mM PMSF, 10 μg/ml aprotinin, 1 μg/ml leupeptin and 500 μM orthovanadate (lysis buffer, 10^8 cells/ml). The cellular debris was removed by centrifugation and the soluble proteins incubated with an anti-TrkA cytoplasmic domain antibody. Antibody complexes were isolated by incubating with immobilized protein G (Pierce Ultralink; 70 μl of a 50% slurry) for 2 hours at 4° C. The solid phase was washed extensively with lysis buffer and the pellet dissolved in SDS sample buffer. Proteins were resolved using 6% SDS PAGE and Western analysis performed with anti-phosphotyrosine 4G10 (UBI) visualized with ECL (Amersham).

DRG neurons = assay: BDNF-dependent neurite outgrowth of DRG neurons; assay type: cell-based, chick; details: n = 8
Procedure: Dissosiated cells enriched for sensory neurons were prepared from ED8 chick DRG as described (Dostaler, S. M. et al. Characterization of a distinctive motif of the low molecular weight neurotrophin receptor that modulates NGF-mediated neurite growth. Eur. J. Neurosci. 8, 870-879 (1996)). Neurons were seeded at a density of 800-1000 cells/well in Ham's F-12 containing 5% FCS and NGF at 10 pM into wells of Terasaki plates treated with polyysine. The cells were incubated with the indicated additives at 37° C. in a 5% CO2 atmosphere. The cells on the entire lower horizontal surface of the well were scored for neurite growth at 18-20 hours using an inverted microscope fitted with phase contrast optics. A neurite was scored if its caliber from the origin to terminal was constant and its length was equal to or greater than 1.5 cell body diameters. Neurite growth was corrected for background (no NGF).
Human recombinant BDNF and human recombinant NT-3 were obtained from Alomone Laboratories (Israel). The iodination, crosslinking, and binding experiments using BDNF and NT-3 were performed using the methods described above for NGF. Neurite outgrowth assays were performed as described in the presence of 4.0 nM NT-3 or 8.0 nM BDNF.

p75^NTR /TrkA = assay: Receptor crosslinking of 125I-NGF with transition metal ions (receptor selectivity); assay type: binding
Chain of p75^NTR /TrkA (P01139 122-239): as above
Chain of p75^NTR /TrkA (P07174 30-425 partner): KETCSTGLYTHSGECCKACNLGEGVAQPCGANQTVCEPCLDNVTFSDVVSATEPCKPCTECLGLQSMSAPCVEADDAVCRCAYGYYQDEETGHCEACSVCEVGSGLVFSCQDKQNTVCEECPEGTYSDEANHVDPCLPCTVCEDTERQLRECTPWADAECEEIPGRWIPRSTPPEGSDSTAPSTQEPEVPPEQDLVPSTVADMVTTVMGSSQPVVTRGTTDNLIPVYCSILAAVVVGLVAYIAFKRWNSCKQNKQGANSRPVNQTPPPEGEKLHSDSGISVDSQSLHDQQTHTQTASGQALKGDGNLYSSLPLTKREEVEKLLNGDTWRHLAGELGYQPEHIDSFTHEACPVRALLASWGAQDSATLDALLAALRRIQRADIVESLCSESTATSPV
Chain of p75^NTR /TrkA (P35739 33-799 partner): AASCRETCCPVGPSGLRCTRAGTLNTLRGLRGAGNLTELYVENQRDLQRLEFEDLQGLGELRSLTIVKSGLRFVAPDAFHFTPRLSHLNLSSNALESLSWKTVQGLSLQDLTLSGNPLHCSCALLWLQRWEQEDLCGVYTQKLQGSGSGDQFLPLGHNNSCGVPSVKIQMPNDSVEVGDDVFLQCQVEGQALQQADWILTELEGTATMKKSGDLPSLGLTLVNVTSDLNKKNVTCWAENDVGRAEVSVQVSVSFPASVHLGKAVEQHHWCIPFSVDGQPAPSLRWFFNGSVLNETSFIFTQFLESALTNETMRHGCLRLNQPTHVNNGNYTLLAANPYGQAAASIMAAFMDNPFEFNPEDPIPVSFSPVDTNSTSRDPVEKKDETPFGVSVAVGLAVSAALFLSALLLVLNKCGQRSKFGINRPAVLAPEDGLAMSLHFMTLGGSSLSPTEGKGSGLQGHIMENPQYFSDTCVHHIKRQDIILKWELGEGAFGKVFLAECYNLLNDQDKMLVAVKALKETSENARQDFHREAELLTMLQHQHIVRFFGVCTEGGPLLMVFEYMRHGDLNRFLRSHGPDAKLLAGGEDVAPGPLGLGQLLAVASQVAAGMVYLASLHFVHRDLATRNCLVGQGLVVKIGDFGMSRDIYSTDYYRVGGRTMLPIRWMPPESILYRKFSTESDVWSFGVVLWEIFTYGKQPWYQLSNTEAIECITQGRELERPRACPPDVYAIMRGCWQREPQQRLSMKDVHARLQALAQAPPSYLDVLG
Procedure: as §1

[1] = system: kindling-induced seizures; assay: Kindling (seizure development) in rats; assay type: in vivo, Male Long-Evans hooded rats; details: intraventricular infusion; peptide 45 μM, anti-NGF 100 μg/day
Procedure: The effect of the present neurotrophin-derived peptides on kindling was determined as follows.
Male Long-Evans hooded rats (300-400 g) were used. The animals were housed individually, maintained on an ad lib feeding schedule and kept on a 12 h on/12 h off light cycle. The rats were anaestetised with 0.1 mL per 100 g body weight of 100 mg/mL ketamine hydrochloride (Roger/STB Inc., London, Canada) and 0.05 mL per 100 g body weight of 20 mg/mL xylocaine 2% hydrochloride (Astra, Mississauga, Canada), and then placed in a stereotaxic holder. […] Following implantation of the electrode, a cannula (Alzet brain infusion kit, Alza Corp.) was implanted in the lateral ventricle, 5 mm below the skull surface, at 0.6 mm caudal to bregma and 1.3 mm lateral to the midline. It was firmly attached to the skull with dental cement and anchored with tee stainless steel screws. […] Histological examination of lateral ventricle sections was done to confirm that the cannula was correctly placed. […] There were five groups of test animals, 5 animals per peptide test group, 10 animals in the negative control group and 12 animals in the positive control group. […]
Following a three-day recovery, the kindling stimulations were started. […] Progression of kindling was monitored behaviorally and electrophysiologically by recording the behavioral seizure stages and the duration and magnitude of afterdischarges.

[2] = system: kindling-induced seizures; details: kindling animal model of epilepsy (Rashid et al. 1995); cited from earlier work
NT-3 = details: Rashid et al. 1995; cited from earlier work

| Molecule | steady-state specific binding of 125I-NGF (0.5 nM) to TrkA (TrkA) | Crosslinking of 125I-NGF to larger complexes (BSA or ovalbumin) (NGF) | NGF monomer crosslinking by BS3 (NGF; 0.1 nM 125I-NGF, CaEDTA together with Zn2+) | NGF Protomer Conformation (active/inactive) (NGF; 100 μM) | Crosslinking of NGF promoters after His modification (DEPC) (NGF; DEPC-modified NGF) | NGF-mediated survival of PC12 cells (PC12 cells; 100 μM, serum-free, CaEDTA together with Zn2+) | Antagonism of NGF-dependent survival (PC12 cells; high (1 nM) or low (50 pM) NGF) | Survival @ 50 pM NGF (PC12 cells; rat, pc12 cells, 100 µM) | Survival @ 1 nM NGF (PC12 cells; rat, pc12 cells, 100 µM) | NGF-induced TrkA phosphorylation (TrkA receptor; 100 μM, PC12 cells) | Basal TrkA phosphorylation (TrkA receptor; no NGF) | Neurite Outgrowth, BDNF (8.0 nM) (DRG neurons; 30 μM Zn2+) | Neurite Outgrowth, BDNF (8.0 nM) (DRG neurons; 50 μM Zn2+) | Blocking of NGF binding to TrkA and p75NTR in receptor crosslinking (p75^NTR /TrkA) | Delay of the onset of kindling (number of stimulations to stage-5 seizures) [1] | Inhibition of seizure and mossy fiber sprouting [2] | Antagonism of NT-3 in vitro (NT-3) |
| --- | --- | --- | --- | --- | --- | --- | --- | --- | --- | --- | --- | --- | --- | --- | --- | --- | --- |
| [Zn+2] [Zn^2+] | 19 ± 15 % Control | promoted | NGF monomer crosslinking was inhibited | active | not affected by Zn^2+; also recorded: abolished | reduced signifcantly | ability to antagonize the NGF-dependant survival | 67 ± 19 % control | 84 ± 39 % control | prevented phosphorylation | no effect on basal TrkA phosphorylation | 30.0 ± 13.3 % Maximum process bearing neur | 1.4 ± 1.4 % Maximum process bearing neur | blocked binding to both receptors |  |  |  |
| NH2 -Cys-Gly-Ser-Glu-Val-Pro-Asn-Ser-Ala-Arg-Cys-Cys-Val-Cys-OH (H-CGSEVPNSARCCVC-OH; disulfide 1-14, 11-12) [R11, bicyclic peptide of NGF residues 68-58/108-110, two disulfide bonds] |  |  |  |  |  |  |  |  |  |  |  |  |  |  | approximately equal to that of the anti-NGF IgG | inhibit both seizure and mossy fiber sprouting | effective antagonist |
